Experimental data reported in patent US20250296959A1, “B7-H3 TARGETING PEPTIDES AND CONSTRUCTS THEREOF” (Mariana Oncology Inc., priority 2024, published 2025).
pKd: −log10 of the molar value. Where two headings read alike, the source gives them in different places. Starred links: 1 amine or outer side, 2 acyl side, 3 side chain; linkers in the order of their positions; H or OH if unused. Positions of bridges follow the written chain, without caps; N, C: chain ends. Non-standard residues stand in square brackets, D forms with d. Residues, ends and D or L forms follow the SMILES beside them. *: point of attachment. Ala(piperidin-4-yl) = O=C([C@H](CC1CCN([*:3])CC1)N[*:1])[*:2]; Phe(3-CH2NH2) = O=C([C@H](Cc1cccc(CN[*:3])c1)N[*:1])[*:2]; DOTA = O=C(O)CN1CCN(CC(=O)O)CCN(CC(=O)*)CCN(CC(=O)O)CC1; Trp(5-F) = N[C@@H](Cc1c[nH]c2ccc(F)cc12)C(=O)O; 1Nal = N[C@@H](Cc1cccc2ccccc12)C(=O)O; Val(3-OH) = CC(C)(O)[C@H](N)C(=O)O; 4Pal = N[C@@H](Cc1ccncc1)C(=O)O; Cha = N[C@@H](CC1CCCCC1)C(=O)O; aThr = C[C@H](O)[C@H](N)C(=O)O; Chg = N[C@H](C(=O)O)C1CCCCC1; Tle = CC(C)(C)[C@H](N)C(=O)O; hLeu = CC(C)CC[C@H](N)C(=O)O

Assays:
[1] = target: T1, human 4lg B7-H3 (Homo sapiens, UniProt Q5ZPR3); experiment: Affinity determination by surface plasmon resonance (SPR) to 4Ig B7-H3; settings: 4Ig B7-H3, 25° C. flow cell temperature
T1 sequence (Q5ZPR3 29-534): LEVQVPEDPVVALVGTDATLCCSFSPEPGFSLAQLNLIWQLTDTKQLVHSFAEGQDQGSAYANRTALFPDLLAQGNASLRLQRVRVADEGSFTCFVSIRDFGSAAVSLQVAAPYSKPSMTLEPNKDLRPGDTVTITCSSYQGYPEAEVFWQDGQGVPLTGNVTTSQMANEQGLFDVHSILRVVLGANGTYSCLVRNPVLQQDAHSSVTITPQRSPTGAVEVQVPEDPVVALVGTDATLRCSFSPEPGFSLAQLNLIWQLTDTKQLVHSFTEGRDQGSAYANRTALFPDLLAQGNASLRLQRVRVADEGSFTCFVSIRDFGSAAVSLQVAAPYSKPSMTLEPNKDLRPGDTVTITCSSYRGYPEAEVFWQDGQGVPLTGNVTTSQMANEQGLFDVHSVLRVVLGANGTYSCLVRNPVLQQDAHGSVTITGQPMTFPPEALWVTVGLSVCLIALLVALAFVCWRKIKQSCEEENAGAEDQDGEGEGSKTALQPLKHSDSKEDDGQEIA

[2] = test system: Calu-6 cell line; experiment: Net internalization of [177Lu]Lu-labeled peptide in Calu-6 cells; assay type: cell-based, Human; settings: 1 hour, 37° C., glycine pH 2.5 acid wash
Method: (§1) [^177Lu]LuCl3 was received from venders in HCl solution. For every mCi of [^177Lu]LuCl3 added to the reaction vial (1.5 mL Eppendorf vial), ammonium acetate buffer (0.2 M, pH 4.9, 100 μL, containing 1% w/v ascorbic acid and 6% v/v ethanol) and peptide conjugate (1 nmol) was added. The pH of the solution was determined to be approximately 5 by using pH strips. The reaction vial was incubated at 80° C., 700 RPM for 17-20 minutes. A sample from the reaction was analyzed by RP-HPLC using an Agilent Infinity II 1260 HPLC to determine reaction completion and radiochemical purity. HPLC conditions: Waters XBridge BEH C18 Column, 130 Å, 3.5 μm, 4.6 mm×250 mm; mobile phase: Solvent A=water (with 0.1% formic acid), solvent B=acetonitrile (with 0.1% formic acid). Gradients: 25-45% B in 10 minutes, 45-65% B in 12 minutes, 65-90% in 6 minutes at a flow rate of 0.5 mL/minute. Required amounts of the product were formulated in 1% PBSA for cell studies.
(§2) The study was conducted using Calu-6 cell line (Table 8)
(§3) Adherent cell studies: The cells were cultured in appropriate culture media (20 mL) in tissue culture treated T150 flasks at 37° C. and 5% CO2. Adherent cells were detached (60-70% confluent) using 5 mL Versene at 37° C. for 3 minutes. After confirming the viability using countess and count of detached cells using Trypan blue, the cells were centrifuged at 4° C. for 5 minutes (1,000 revolutions per minute). The cell pellet obtained was washed once with PBS and resuspended in 1% PBSA to obtain the desired cell concentration (5 million cells/mL).
Net internalization: The resuspended cells in 300 μl of 1% PBSA and counted in the gamma counter as “bound fraction” were collected in 1.5 mL Eppendorf tube and pelleted. The pelleted cells were incubated with 300 μl of 50 mM Glycine pH=2.5 for 3 minutes and then pelleted discarding the supernatant. This process was repeated one more time. The pelleted cells were washed with 300 μl of cold 1% PBSA and then resuspended in 300 μl 0.3 M NaOH. This was counted in the gamma counter as “internalized fraction”.
(§4) Calu-6 Cells are Human-Derived, Non-Engineered Lung Cancer Cell that Express B7-H3.

[3] = test system: Calu-6 cell line; experiment: Cell associated (bound) fraction of [177Lu]Lu-labeled peptide in Calu-6 cells; assay type: cell-based, Human; settings: 1 hour, 37° C.
Method: as §1, §2, §3
Cell associated fraction: Cells were incubated with 300 μL (0.8 μCi) of the incubation buffer (containing radiolabeled peptide [^177Lu]Lu-test peptide) for 1 hour at 37 C (Table 9). Post incubation, the cells were pelleted and washed 2 times using cold PBS+1% BSA. The supernatant and washes were combined and counted together as “unbound fraction” in a gamma counter. The cells were then resuspended in 300 μL of 1% PBS+1% BSA and counted in the gamma counter as cell associated fraction (or bound fraction).
as §4

## CC(=O)N[C@@H](CCC(C)C)C(=O)N[C@@H](Cc1ccc(O)cc1)C(=O)N[C@H]1CSSC[C@@H](C(=O)N[C@@H](Cc2c[nH]c3ccc(F)cc23)C(=O)N[C@@H](Cc2ccccc2)C(=O)N2CCC[C@H]2C(=O)N[C@H](CCCCNC(=O)CN2CCN(CC(=O)O)CCN(CC(=O)O)CCN(CC(=O)O)CC2)C(N)=O)NC(=O)[C@H](Cc2ccc(O)cc2)NC(=O)[C@H](C(C)C)NC(=O)[C@H](CC(=O)O)NC(=O)[C@H](Cc2ccc(O)cc2)NC(=O)[C@H](CCCCN)NC(=O)CNC(=O)[C@H](C(C)C)NC1=O [compound 160, Ac-hLeu-Y-C-V-G-K-Y-D-V-Y-C-5FW-F-Pro-dLys(DOTA)-CONH2] (Ac-[hLeu]YCVGKYDVYC[Trp(5-F)]FP[dK](DOTA)-NH2; disulfide 3-11)
[1]; read-out: SPR KD—25° C.
  pKd: > 9.00
[2]
  % net internalization: A (%≤25)
[3]
  % cell associated fraction: B (25<%≤50)

## CC(=O)N[C@@H](CCC(C)C)C(=O)N[C@@H](Cc1ccc(O)cc1)C(=O)N[C@H]1CSSC[C@@H](C(=O)N[C@@H](Cc2c[nH]c3ccc(F)cc23)C(=O)N[C@@H](Cc2ccccc2)C(=O)N[C@H](C(=O)N[C@H](CCCCNC(=O)CN2CCN(CC(=O)O)CCN(CC(=O)O)CCN(CC(=O)O)CC2)C(N)=O)[C@H](C)O)NC(=O)[C@H](Cc2ccc(O)cc2)NC(=O)[C@H](C(C)C)NC(=O)[C@H](CC(=O)O)NC(=O)[C@H](Cc2ccc(O)cc2)NC(=O)[C@H](CCCCN)NC(=O)CNC(=O)[C@H](C(C)C)NC1=O [compound 162, Ac-hLeu-Y-C-V-G-K-Y-D-V-Y-C-5FW-F-alloThr-dLys(DOTA)-CONH2] (Ac-[hLeu]YCVGKYDVYC[Trp(5-F)]F[aThr][dK](DOTA)-NH2; disulfide 3-11)
[1]; read-out: SPR KD—25° C.
  pKd: > 9.00
[2]
  % net internalization: A (%≤25)
[3]
  % cell associated fraction: B (25<%≤50)

## CC(=O)N[C@@H](CCC(C)C)C(=O)N[C@@H](Cc1ccc(O)cc1)C(=O)N[C@H]1CSSC[C@@H](C(=O)N[C@@H](Cc2cccc3ccccc23)C(=O)N[C@@H](Cc2ccccc2)C(=O)N[C@H](C(=O)N[C@H](CCCCNC(=O)CN2CCN(CC(=O)O)CCN(CC(=O)O)CCN(CC(=O)O)CC2)C(N)=O)[C@@H](C)O)NC(=O)[C@H](Cc2ccc(O)cc2)NC(=O)[C@H](C(C)C)NC(=O)[C@H](CC(=O)O)NC(=O)[C@H](Cc2ccc(O)cc2)NC(=O)[C@H](CCCCN)NC(=O)CNC(=O)[C@H](C(C)(C)C)NC1=O [compound 179, Ac-hLeu-Y-C-Tbg-G-K-Y-D-V-Y-C-1Nal-F-Thr-dLys(DOTA)-CONH2] (Ac-[hLeu]YC[Tle]GKYDVYC[1Nal]FT[dK](DOTA)-NH2; disulfide 3-11)
[1]; read-out: SPR KD—25° C.
  pKd: > 9.00
[2]
  % net internalization: A (%≤25)
[3]
  % cell associated fraction: B (25<%≤50)

## CC(=O)N[C@@H](CCC(C)C)C(=O)N[C@@H](Cc1ccc(O)cc1)C(=O)N[C@H]1CSSC[C@@H](C(=O)N[C@@H](Cc2c[nH]c3ccc(F)cc23)C(=O)N[C@@H](Cc2ccccc2)C(=O)N[C@H](C(N)=O)[C@@H](C)O)NC(=O)[C@H](Cc2ccc(O)cc2)NC(=O)[C@H](C(C)C)NC(=O)[C@H](CC(=O)O)NC(=O)[C@H](Cc2cccc(CNC(=O)CN3CCN(CC(=O)O)CCN(CC(=O)O)CCN(CC(=O)O)CC3)c2)NC(=O)[C@H](CCCCN)NC(=O)CNC(=O)[C@H](C(C)C)NC1=O [compound 182, Ac-hLeu-Y-C-V-G-K-MAF(DOTA)-D-V-Y-C-5FW-F-Thr-CONH2] (Ac-[hLeu]YCVGK[Phe(3-CH2NH2)](DOTA)DVYC[Trp(5-F)]FT-NH2; disulfide 3-11)
[1]; SPR KD—25° C.
  pKd: > 9.00
[2]
  % net internalization: C (%>50)
[3]
  % cell associated fraction: C (%>50)

## CC(=O)N[C@@H](CCC(C)C)C(=O)N[C@@H](Cc1ccc(O)cc1)C(=O)N[C@H]1CSSC[C@@H](C(=O)N[C@@H](Cc2c[nH]c3ccc(F)cc23)C(=O)N[C@@H](Cc2ccccc2)C(=O)N[C@H](C(=O)N[C@H](CCCCNC(=O)CN2CCN(CC(=O)O)CCN(CC(=O)O)CCN(CC(=O)O)CC2)C(N)=O)[C@@H](C)O)NC(=O)[C@H](Cc2ccc(O)cc2)NC(=O)[C@H](C2CCCCC2)NC(=O)[C@H](CC(=O)O)NC(=O)[C@H](Cc2ccncc2)NC(=O)[C@H](CCCCN)NC(=O)CNC(=O)[C@H](C(C)C)NC1=O [compound 190, Ac-hLeu-Y-C-V-G-K-4PyA-D-ChG-Y-C-5FW-F-Thr-dLys(DOTA)-CONH2] (Ac-[hLeu]YCVGK[4Pal]D[Chg]YC[Trp(5-F)]FT[dK](DOTA)-NH2; disulfide 3-11)
[1]; read-out: SPR KD—25° C.
  pKd: > 9.00
[2]
  % net internalization: B (25<%≤50)
[3]
  % cell associated fraction: C (%>50)

## CC[C@H](C)[C@@H]1NC(=O)[C@@H](NC(=O)[C@H](Cc2ccc(O)cc2)NC(=O)[C@H](CCC(C)C)NC(C)=O)CSSC[C@@H](C(=O)N[C@@H](Cc2c[nH]c3ccc(F)cc23)C(=O)N[C@@H](Cc2ccccc2)C(=O)N[C@H](C(N)=O)C(C)(C)O)NC(=O)[C@H](Cc2ccc(O)cc2)NC(=O)[C@H](C(C)C)NC(=O)[C@H](CC(=O)O)NC(=O)[C@H](CC2CCNCC2)NC(=O)[C@H](CCCCNC(=O)CN2CCN(CC(=O)O)CCN(CC(=O)O)CCN(CC(=O)O)CC2)NC(=O)CNC1=O [compound 203, Ac-hLeu-Y-C-Ile-G-Lys(DOTA)-PipAla-D-V-Y-C-5FW-F-hydroxyVal-CONH2] (Ac-[hLeu]YCIGK(DOTA)[Ala(piperidin-4-yl)]DVYC[Trp(5-F)]F[Val(3-OH)]-NH2; disulfide 3-11)
[1]; SPR KD—25° C.
  pKd: > 9.00
[2]
  % net internalization: A (%≤25)
[3]
  % cell associated fraction: B (25<%≤50)

## CC(=O)N[C@@H](CCC(C)C)C(=O)N[C@@H](Cc1ccc(O)cc1)C(=O)N[C@H]1CSSC[C@@H](C(=O)N[C@@H](Cc2c[nH]c3ccc(F)cc23)C(=O)N[C@@H](Cc2ccccc2)C(=O)N[C@H](C(=O)N[C@H](CCCCNC(=O)CN2CCN(CC(=O)O)CCN(CC(=O)O)CCN(CC(=O)O)CC2)C(N)=O)[C@@H](C)O)NC(=O)[C@H](Cc2ccc(O)cc2)NC(=O)[C@H](C2CCCCC2)NC(=O)[C@H](CC(=O)O)NC(=O)[C@H](Cc2ccc(O)cc2)NC(=O)[C@H](CCCCN)NC(=O)CNC(=O)[C@H](C(C)C)NC1=O [compound 215, Ac-hLeu-Y-C-V-G-K-Y-D-ChG-Y-C-5FW-F-Thr-dLys(DOTA)-CONH2] (Ac-[hLeu]YCVGKYD[Chg]YC[Trp(5-F)]FT[dK](DOTA)-NH2; disulfide 3-11)
[1]; read-out: SPR KD—25° C.
  pKd: > 9.00
[2]
  % net internalization: A (%≤25)
[3]
  % cell associated fraction: C (%>50)

## CC(=O)N[C@@H](CCC(C)C)C(=O)N[C@@H](Cc1ccc(O)cc1)C(=O)N[C@H]1CSSC[C@@H](C(=O)N[C@@H](Cc2c[nH]c3ccc(F)cc23)C(=O)N[C@@H](Cc2ccccc2)C(=O)N[C@H](C(=O)N[C@H](CCCCNC(=O)CN2CCN(CC(=O)O)CCN(CC(=O)O)CCN(CC(=O)O)CC2)C(N)=O)C(C)(C)O)NC(=O)[C@H](Cc2ccc(O)cc2)NC(=O)[C@H](C(C)C)NC(=O)[C@H](CC(=O)O)NC(=O)[C@H](CC2CCCCC2)NC(=O)[C@H](CC2CCNCC2)NC(=O)CNC(=O)[C@H](C(C)C)NC1=O [compound 227, Ac-hLeu-Y-C-V-G-PipAla-CHA-D-V-Y-C-5FW-F-hydroxyVal-dLys(DOTA)-CONH2] (Ac-[hLeu]YCVG[Ala(piperidin-4-yl)][Cha]DVYC[Trp(5-F)]F[Val(3-OH)][dK](DOTA)-NH2; disulfide 3-11)
[1]; read-out: SPR KD—25° C.
  pKd: > 9.00
[2]
  % net internalization: B (25<%≤50)
[3]
  % cell associated fraction: C (%>50)
